Assay results as given in article PMC7584476, “Safety and efficacy of BAY1436032 in IDH1-mutant AML: phase I study results” (Leukemia, 2020).
Where two headings read alike, the source gives them in different places.

Tests used:
[1] = tested on: mIDH1; assay: Pharmacodynamics: plasma R-2HG levels as target inhibition; assay type: in vivo, human
Procedure: For quantification of R-2HG, plasma samples were collected at the following time points and stored frozen: screening, C1-D1 (pre-dose and post-dose), C1-D8 (pre-dose), C1-D15 (pre-dose and post-dose), C1-D22 (pre-dose), pre-dose on D1 and D15 of each cycle thereafter, and at treatment end. Plasma R-2HG concentrations were measured by Eurofins as described in Supplementary Methods. […]
(§1) 29 Pharmacodynamics: Determination of R -2HG in plasma
(§2) 30 Plasma R-2HG concentrations were measured by Eurofins using a qualified LC -MS/MS
31 method with a lower limit of quantification (LLOQ) of 25 ng/mL. For assay validation
32 purposes, plasma samples from 9 subjects with wtIDH1 and wtIDH2 cholangiocarcinoma

[2] = Plasma pharmacokinetics of BAY1436032 (LC-MS/MS); assay type: in vivo, human; conditions: for AUC(0-t) / Cmax: geometric mean (CV)
Procedure: Plasma samples were collected at various times on C1-D1, C1-D2, C1-D8, and C1-D15 and stored frozen for PK assessments. Collection times on these days are indicated on Supplementary Fig. S1 (C1-D8 PK results are not shown). The evening dose of BAY1436032 was withheld on C1-D1 to facilitate assessment of the 24-h single-dose time point on C1-D2. Quantitative analysis of BAY1436032 (free acid) in plasma was performed as described in Supplementary Methods.
(§3) 13 Pharmacokinetics: Determination of BAY1436032 in plasma
(§4) 14 Quantitative analysis of BAY1436032 (free acid) in plasma was determined using a fully
(§5) 15 validated method after protein precipitation with acetonitrile/0.4 mM ammonium acetate
(§6) 16 (pH 3, 80:20, v/v) containing the internal standard, followed by separation employing
(§7) 17 high-pressure liquid chromatography-tandem mass spectrometric detection (LC-MS/MS).
(§8) 18 The method validation and sample analysis were performed in compliance with the
(§9) 19 pertinent guidelines on Bioanalytical Method Validation of FDA (2001) and EMA (2011).
(§10) 20 Samples were stored at or below -15°C and analyzed within 135 days of sampling.
(§11) 22 concentration (C max), area under the concentration versus time curve from time 0 to
(§12) 23 8 hours (AUC(0-8)), and AUC from time 0 to 12 hours (AUC(0-12)) were calculated using the
(§13) 24 model-independent (compartment -free) method. The dose proportionality in the 300 mg
(§14) 25 to 1500 mg dose range was evaluated by performing explorative analyses of variance
(§15) 26 (ANOVA) on the log -transformed values of Cmax and AUC(0-12), calculated from single and
27 continuous BID dosing PK profiles. […]

[3] = Stability of BAY1436032 in stored plasma samples; assay type: in vitro ADME, human; conditions: at or below -15°C, 135 days
Procedure: as §3, §4, §5, §6, §7, §8, §9, §10, §11, §12, §13, §14, §15
27 continuous BID dosing PK profiles.
as §1, §2
31 method with a lower limit of quantification (LLOQ) of 25 ng/mL. For assay validation […]

[4] = tested on: mIDH1 glioma; design: method as in doi:10.1093/annonc/mdz244.020; conditions: subjects with mIDH1 glioma; cited from earlier work

With C[C@H]1C[C@@H](n2c(Nc3ccc(OC(F)(F)F)cc3)nc3cc(CCC(=O)O)ccc32)CC(C)(C)C1 [BAY1436032] as the compound, how does the R-2HG best decrease ([1]; subject 21, 1500 mg BID, C1-D8, baseline 2025) read?
Its R-2HG best decrease is 1362 ng/mL.

And the “R-2HG best decrease, % change from baseline” value (“R-2HG best decrease, % change” below) ([1]; subject 22, 1500 mg BID, C1-D8)?
Its value is 78%.

What about the R-2HG best decrease ([1]; subject 22, 1500 mg BID, C1-D8, baseline 887) of the same compound?
Its R-2HG best decrease is 193 ng/mL.

And the “R-2HG best decrease, % change” value ([1]; subject 23, 1500 mg BID, C1-D8)?
The value was 93%.

And the R-2HG best decrease ([1]; subject 23, 1500 mg BID, C1-D8, baseline 3599)?
Its R-2HG best decrease is 265 ng/mL.

What about the “R-2HG best decrease, % change” value ([1]; subject 24, 1500 mg BID, C4-D1) of the same compound?
The value was 75%.

And the R-2HG best decrease ([1]; subject 24, 1500 mg BID, C4-D1, baseline 164)?
Its R-2HG best decrease is 41 ng/mL.

What about the “R-2HG best decrease, % change” value ([1]; subject 25, 1500 mg BID, C1-D15) of the same compound?
Its value is 45%.

What about the R-2HG best decrease ([1]; subject 25, 1500 mg BID, C1-D15, baseline 577) of the same compound?
Its R-2HG best decrease is 320 ng/mL.

What about the “R-2HG best decrease, % change” value ([1]; subject 26, 1500 mg BID, C1-D8) of the same compound?
The value was 62%.

And the R-2HG best decrease ([1]; subject 26, 1500 mg BID, C1-D8, baseline 1060)?
Its R-2HG best decrease is 401 ng/mL.

What about the “R-2HG best decrease, % change” value ([1]; subject 27, 1500 mg BID, C1-D15) of the same compound?
Its value is 53%.

And the R-2HG best decrease ([1]; subject 27, 1500 mg BID, C1-D15, baseline 800)?
Its R-2HG best decrease is 375 ng/mL.

And the Accumulation ([2]; C1-D15, continuous BID)?
The Accumulation was “Minimal accumulation”.

And the Dose-proportionality of exposure ([2]; continuous BID administration)?
Its Dose-proportionality of exposure is “dose-proportionality was not apparent”.

What about the AUC(0-t) ([2]; human, plasma, oral, 300 mg, C1-D1 single-dose, 300 mg, n=7, read-out: AUC(0-8)) of the same compound?
The AUC(0-t) was 6600 ng·h/mL.

What about the AUC(0-t) ([2]; human, plasma, oral, 300 mg, C1-D1 single-dose, 300 mg, n=7, read-out: AUC(0-12)) of the same compound?
Its AUC(0-t) is 7440 ng·h/mL.

And the Cmax ([2]; human, plasma, oral, 300 mg, C1-D1 single-dose, 300 mg, n=7, read-out: Cmax)?
The Cmax was 2000 ng/mL.

What about the AUC(0-t) ([2]; human, plasma, oral, 300 mg, C1-D15 continuous BID, 300 mg BID, n=5, read-out: AUC(0-8)md) of the same compound?
The AUC(0-t) was 5920 ng·h/mL.

And the AUC(0-t) ([2]; human, plasma, oral, 300 mg, C1-D15 continuous BID, 300 mg BID, n=5, read-out: AUC(0-12)md)?
Its AUC(0-t) is 6750 ng·h/mL.

And the Cmax ([2]; human, plasma, oral, 300 mg, C1-D15 continuous BID, 300 mg BID, n=6, read-out: Cmax,md)?
The Cmax was 1880 ng/mL.

What about the AUC(0-t) ([2]; human, plasma, oral, 600 mg, C1-D1 single-dose, 600 mg, n=4, read-out: AUC(0-8)) of the same compound?
Its AUC(0-t) is 12500 ng·h/mL.

And the AUC(0-t) ([2]; human, plasma, oral, 600 mg, C1-D1 single-dose, 600 mg, n=4, read-out: AUC(0-12))?
The AUC(0-t) was 15200 ng·h/mL.

What about the Cmax ([2]; human, plasma, oral, 600 mg, C1-D1 single-dose, 600 mg, n=4, read-out: Cmax) of the same compound?
Its Cmax is 3200 ng/mL.

And the AUC(0-t) ([2]; human, plasma, oral, 600 mg, C1-D15 continuous BID, 600 mg BID, n=3, read-out: AUC(0-8)md)?
The AUC(0-t) was 22300 ng·h/mL.

And the AUC(0-t) ([2]; human, plasma, oral, 600 mg, C1-D15 continuous BID, 600 mg BID, n=3, read-out: AUC(0-12)md)?
Its AUC(0-t) is 25400 ng·h/mL.

What about the Cmax ([2]; human, plasma, oral, 600 mg, C1-D15 continuous BID, 600 mg BID, n=4, read-out: Cmax,md) of the same compound?
The Cmax was 5050 ng/mL.

And the AUC(0-t) ([2]; human, plasma, oral, 1200 mg, C1-D1 single-dose, 1200 mg, n=7, read-out: AUC(0-8))?
The AUC(0-t) was 20700 ng·h/mL.

And the AUC(0-t) ([2]; human, plasma, oral, 1200 mg, C1-D1 single-dose, 1200 mg, n=7, read-out: AUC(0-12))?
Its AUC(0-t) is 24800 ng·h/mL.

And the Cmax ([2]; human, plasma, oral, 1200 mg, C1-D1 single-dose, 1200 mg, n=7, read-out: Cmax)?
Its Cmax is 5310 ng/mL.

What about the AUC(0-t) ([2]; human, plasma, oral, 1200 mg, C1-D15 continuous BID, 1200 mg BID, n=5, read-out: AUC(0-12)md) of the same compound?
The AUC(0-t) was 21800 ng·h/mL.

What about the AUC(0-t) ([2]; human, plasma, oral, 1200 mg, C1-D15 continuous BID, 1200 mg BID, n=6, read-out: AUC(0-8)md) of the same compound?
Its AUC(0-t) is 22900 ng·h/mL.

And the Cmax ([2]; human, plasma, oral, 1200 mg, C1-D15 continuous BID, 1200 mg BID, n=7, read-out: Cmax,md)?
Its Cmax is 6050 ng/mL.

And the AUC(0-t) ([2]; human, plasma, oral, 1500 mg, C1-D1 single-dose, 1500 mg, n=9, read-out: AUC(0-8))?
Its AUC(0-t) is 42200 ng·h/mL.

What about the AUC(0-t) ([2]; human, plasma, oral, 1500 mg, C1-D1 single-dose, 1500 mg, n=9, read-out: AUC(0-12)) of the same compound?
The AUC(0-t) was 50300 ng·h/mL.

What about the Cmax ([2]; human, plasma, oral, 1500 mg, C1-D1 single-dose, 1500 mg, n=9, read-out: Cmax) of the same compound?
Its Cmax is 9820 ng/mL.

What about the AUC(0-t) ([2]; human, plasma, oral, 1500 mg, C1-D15 continuous BID, 1500 mg BID, n=3, read-out: AUC(0-12)md) of the same compound?
Its AUC(0-t) is 44500 ng·h/mL.

What about the AUC(0-t) ([2]; human, plasma, oral, 1500 mg, C1-D15 continuous BID, 1500 mg BID, n=5, read-out: AUC(0-8)md) of the same compound?
Its AUC(0-t) is 34000 ng·h/mL.

What about the Cmax ([2]; human, plasma, oral, 1500 mg, C1-D15 continuous BID, 1500 mg BID, n=7, read-out: Cmax,md) of the same compound?
The Cmax was 9460 ng/mL.

What about the Tmax ([2]; human, plasma, oral, single-dose and continuous BID administration, read-out: Time of maximum plasma concentrations) of the same compound?
The Tmax was 3 to 4 h.

What about the Half-life ([2]; in vivo) of the same compound?
The Half-life was “relatively short”.

What about the “Time at which plasma concentrations were detectable” value ([2]; single oral administration) of the same compound?
The value was 30 min.

What about the “Increase of exposure with dose” value ([2]; single-dose, 300 to 1500 mg, dose-proportional manner) of the same compound?
The value was 1.6–2.0 fold.

And the “Stability in stored plasma samples” value [3]?
Its value is “stable”.

And the Objective responses [4]?
The Objective responses was “objective responses have been observed in a subset of subjects”.
